The results in this text go back to patent US9567302B2, “Carbamate compounds and of making and using same” (Abide Therapeutics, Inc., priority 2012, dated 2017).

Format in all cases: biochemical
For assay [1], the target named is T1, FAAH (Mus musculus, UniProt O08914).
T1 sequence (O08914 1-579): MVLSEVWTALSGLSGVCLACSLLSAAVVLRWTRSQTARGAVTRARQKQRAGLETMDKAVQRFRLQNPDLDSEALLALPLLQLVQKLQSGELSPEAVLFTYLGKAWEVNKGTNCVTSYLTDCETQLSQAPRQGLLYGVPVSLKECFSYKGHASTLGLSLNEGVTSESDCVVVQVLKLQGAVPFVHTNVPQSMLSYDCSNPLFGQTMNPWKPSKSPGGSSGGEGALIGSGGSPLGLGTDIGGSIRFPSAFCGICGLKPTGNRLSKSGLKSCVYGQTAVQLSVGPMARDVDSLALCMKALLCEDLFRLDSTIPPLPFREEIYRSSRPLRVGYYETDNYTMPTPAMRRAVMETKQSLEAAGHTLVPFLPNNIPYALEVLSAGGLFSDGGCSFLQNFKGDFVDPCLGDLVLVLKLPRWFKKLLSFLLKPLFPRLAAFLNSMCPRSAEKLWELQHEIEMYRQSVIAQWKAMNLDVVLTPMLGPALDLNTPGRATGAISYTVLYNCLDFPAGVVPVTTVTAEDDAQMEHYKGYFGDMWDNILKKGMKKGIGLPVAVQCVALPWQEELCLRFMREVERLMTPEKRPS
Nature of the assay: In vitro competitive activity-based protein profiling (FP-Rh), mouse FAAH. Further details: from tissue; host or cells: mouse brain membrane fraction. Conditions: Table 1, mouse proteome, 30 min preincubation at 37° C. The method, then:
(§1) In Vitro Competitive Activity-Based Protein Profiling.
(§2) Proteomes (mouse brain membrane fraction or cell lysates) (50 μL, 1.0 mg/ml total protein concentration) were preincubated with varying concentrations of inhibitors at 37° C. After 30 min, FP-Rh (1.0 μL, 50 μM in DMSO) was added and the mixture was incubated for another 30 min at 37° C. Reactions were quenched with SDS loading buffer (50 μL—4×) and run on SDS-PAGE.

A further assay has as its target T2, hMAGL (Homo sapiens, UniProt Q99685).
T2 construct: expressed in transfected cells; host or cells: HEK293T
T2 sequence (Q99685 1-303): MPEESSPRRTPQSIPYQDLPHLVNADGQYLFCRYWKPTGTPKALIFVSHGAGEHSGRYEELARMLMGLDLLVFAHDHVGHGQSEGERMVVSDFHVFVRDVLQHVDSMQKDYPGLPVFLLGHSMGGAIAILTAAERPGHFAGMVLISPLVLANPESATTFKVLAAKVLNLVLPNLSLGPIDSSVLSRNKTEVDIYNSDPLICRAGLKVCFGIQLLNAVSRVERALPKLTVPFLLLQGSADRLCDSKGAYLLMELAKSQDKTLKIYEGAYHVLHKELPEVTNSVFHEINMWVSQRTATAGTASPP
The assay is described as follows: Competitive ABPP with human MAGL recombinantly expressed in HEK293T cells. Conditions: Table 1; hMAGL-HEK293T cell lysates. Here is the method: as §2
Recombinant Expression of Human MAGL in HEK293T Cells.
Cell lysates were diluted with mock proteomes for use in competitive ABPP experiments.

For assay [2], the target named is T3, MAGL (Mus musculus, UniProt O35678).
T3 sequence (O35678 1-303): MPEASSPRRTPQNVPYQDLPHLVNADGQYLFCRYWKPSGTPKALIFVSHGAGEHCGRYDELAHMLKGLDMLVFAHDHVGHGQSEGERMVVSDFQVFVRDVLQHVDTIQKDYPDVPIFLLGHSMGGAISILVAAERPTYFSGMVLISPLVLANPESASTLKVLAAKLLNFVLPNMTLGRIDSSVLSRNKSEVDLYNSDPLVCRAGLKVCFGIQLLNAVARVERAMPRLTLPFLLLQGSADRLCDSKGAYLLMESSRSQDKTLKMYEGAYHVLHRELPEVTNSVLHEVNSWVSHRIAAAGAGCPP
The assay is described as follows: In vitro competitive activity-based protein profiling (FP-Rh), mouse MAGL. Conditions: Table 1, mouse proteome, 30 min preincubation at 37° C. On the set-up: from tissue; host or cells: mouse brain membrane fraction. Here is the method:
as §1, §2

In assay [3] the target is T4, ABHD6 (Mus musculus, UniProt Q8R2Y0).
T4 sequence (Q8R2Y0 1-336): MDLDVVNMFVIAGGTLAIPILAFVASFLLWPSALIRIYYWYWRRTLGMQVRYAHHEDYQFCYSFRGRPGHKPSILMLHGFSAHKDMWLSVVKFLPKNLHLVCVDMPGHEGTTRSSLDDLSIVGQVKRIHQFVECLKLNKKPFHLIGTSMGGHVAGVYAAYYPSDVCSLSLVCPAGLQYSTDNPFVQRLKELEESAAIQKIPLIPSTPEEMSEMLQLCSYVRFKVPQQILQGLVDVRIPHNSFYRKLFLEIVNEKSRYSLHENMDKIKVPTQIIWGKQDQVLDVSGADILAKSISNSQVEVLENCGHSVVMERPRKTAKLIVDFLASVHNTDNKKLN
Nature of the assay: In vitro competitive activity-based protein profiling (FP-Rh), mouse ABHD6. On the set-up: from tissue; host or cells: mouse brain membrane fraction. Conditions: Table 1, mouse proteome, 30 min preincubation at 37° C. Here is the method:
as §1, §2

Assay [4] addresses T3, MAGL. The assay is described as follows: In vitro competitive ABPP, % inhibition at fixed concentration, MAGL. On the set-up: from tissue. The procedure, abridged: (§3)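 Mouse brain membrane proteome or cell lysate at 1.0 mg/ml was preincubated with inhibitor for 30 min at 37° C, then labelled with FP-Rh for another 30 min. After SDS-PAGE, activity was quantified from the fluorescent intensity of the MAGL, ABHD6 and FAAH bands.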

Assay [5] has as its target T4, ABHD6. The assay is described as follows: In vitro competitive ABPP, % inhibition at fixed concentration, ABHD6. Further details: from tissue. The procedure, abridged:
as §3

For assay [6], the target named is T1, FAAH. Nature of the assay: In vitro competitive ABPP, % inhibition at fixed concentration, FAAH. Further details: from tissue. A digest of the protocol: as §3

Bounds are passed on as bounds.

The term IC50 denotes the concentration that inhibits the measured activity by half. On to `COc1ccc(N2CCN(C(=O)ON3C(=O)CCC3=O)CC2)cc1` [Example 5, 2,5-Dioxopyrrolidin-1-yl 4-(4-methoxyphenyl)piperazine-1-carboxylate], for which the IC50 was over 10000 nM at FAAH [1], 1000 to 10000 nM at hMAGL, 1000 to 10000 nM on MAGL [2] and 1000 to 10000 nM at ABHD6 [3].
As for `O=C(ON1C(=O)CCC1=O)N1CCN(Cc2cccc(Oc3ccccc3)c2)CC1` [Example 7, 2,5-Dioxopyrrolidin-1-yl 4-[(3-phenoxyphenyl)methyl]piperazine-1-carboxylate], the IC50 is 1000 to 10000 nM at FAAH [1], under 100 nM at hMAGL, under 100 nM at MAGL [2] and under 100 nM at ABHD6 [3].
As for `O=C(ON1C(=O)CCC1=O)N1CCC(CCc2ccc(Cl)cc2)CC1` [Example 8, 2,5-Dioxopyrrolidin-1-yl 4-[2-(4-chlorophenyl)ethyl]piperidine-1-carboxylate], the IC50 was 100 to 1000 nM at FAAH [1], under 100 nM on hMAGL, under 100 nM at MAGL [2] and under 100 nM on ABHD6 [3].
For `O=C(ON1C(=O)CCC1=O)N1CCN(Cc2ccccc2Oc2ccccc2)CC1` [Example 35, 2,5-Dioxopyrrolidin-1-yl 4-[(2-phenoxyphenyl)methyl]piperazine-1-carboxylate], the IC50 at FAAH [1] was 1000 to 10000 nM; at hMAGL it was under 100 nM; at MAGL [2], under 100 nM; at ABHD6 [3], under 100 nM.
As usually defined, the inhibition is the change of the read-out against control, counted positive when it falls. Low values mean little suppression, high ones strong suppression. Turning to `Cc1c(CN2CCN(C(=O)ON3C(=O)CCC3=O)CC2)cccc1C(=O)N1CCCC1` [Example 206, 2,5-Dioxopyrrolidin-1-yl 4-{[2-methyl-3-(pyrrolidine-1-carbonyl)phenyl]methyl}piperazine-1-carboxylate], the inhibition at 1 µM on MAGL [4] is 25 to 75%; at ABHD6 [5] it was over 75%; at FAAH [6] it was under 25%.
In the same order, the values of `Cc1c(CN2CCN(C(=O)ON3C(=O)CCC3=O)CC2)cccc1C(=O)N1CCC1` [Example 207, 2,5-Dioxopyrrolidin-1-yl 4-{[3-(azetidine-1-carbonyl)-2-methylphenyl]methyl}piperazine-1-carboxylate] are 25 to 75%, over 75% and under 25%.
The matching figures for `Cc1cc(CN2CCN(C(=O)ON3C(=O)CCC3=O)CC2)cc(C(=O)N2CCOCC2)c1` [Example 208, 2,5-Dioxopyrrolidin-1-yl 4-{[3-methyl-5-(morpholine-4-carbonyl)phenyl]methyl}piperazine-1-carboxylate]: under 25%, under 25% and under 25%.
In the same order, the values of `O=C(ON1C(=O)CCC1=O)N1CCN(Cc2ccc(Cl)c(C(=O)N3CCOCC3)c2)CC1` [Example 209, 2,5-Dioxopyrrolidin-1-yl 4-{[4-chloro-3-(morpholine-4-carbonyl)phenyl]methyl}piperazine-1-carboxylate] are under 25%, under 25% and under 25%.
On to `O=C(ON1C(=O)CCC1=O)N1CCN(Cc2ccc(Cl)c(C(=O)N3CCC3)c2)CC1` [Example 210, 2,5-Dioxopyrrolidin-1-yl 4-{[3-(azetidine-1-carbonyl)-4-chlorophenyl]methyl}piperazine-1-carboxylate], for which the inhibition at 1 µM was under 25% on MAGL [4], 25 to 75% on ABHD6 [5] and under 25% on FAAH [6].
`O=C(ON1C(=O)CCC1=O)N1CCN(C(=O)c2cccc(Cl)c2)CC1` [Example 211, 2,5-Dioxopyrrolidin-1-yl 4-(3-chlorobenzoyl)piperazine-1-carboxylate]: the results for the inhibition at 10 µM on MAGL [4], on ABHD6 [5] and on FAAH [6] were 25 to 75%, 25 to 75% and under 25%, respectively.
As for `O=C(ON1C(=O)CCC1=O)N1CCN(C(=O)c2ccccc2)CC1` [Example 212, 2,5-Dioxopyrrolidin-1-yl 4-benzoylpiperazine-1-carboxylate], the figures for the inhibition at 10 µM at MAGL [4], on ABHD6 [5] and on FAAH [6] were 25 to 75%, under 25% and under 25%, respectively.
Consider `O=C(CN1CCCCC1)N1CCN(C(=O)ON2C(=O)CCC2=O)CC1` [Example 213, 2,5-Dioxopyrrolidin-1-yl 4-[2-(piperidin-1-yl)acetyl]piperazine-1-carboxylate], for which the inhibition at 10 µM at MAGL [4], at ABHD6 [5] and on FAAH [6] was under 25% throughout.
On to `O=C(CN1CCCC1)N1CCN(C(=O)ON2C(=O)CCC2=O)CC1` [Example 214, 2,5-Dioxopyrrolidin-1-yl 4-[2-(pyrrolidin-1-yl)acetyl]piperazine-1-carboxylate], for which the inhibition at 10 µM on MAGL [4], on ABHD6 [5] and on FAAH [6] was under 25% throughout.
`O=C(CN1CCOCC1)N1CCN(C(=O)ON2C(=O)CCC2=O)CC1` [Example 215, 2,5-Dioxopyrrolidin-1-yl 4-[2-(morpholin-4-yl)acetyl]piperazine-1-carboxylate]: the inhibition at 10 µM on MAGL [4], at ABHD6 [5] and on FAAH [6] was under 25% throughout.
Regarding `O=C(CN1CCC1)N1CCN(C(=O)ON2C(=O)CCC2=O)CC1` [Example 216, 2,5-Dioxopyrrolidin-1-yl 4-[2-(azetidin-1-yl)acetyl]piperazine-1-carboxylate], the inhibition at 10 µM on MAGL [4], on ABHD6 [5] and on FAAH [6] was under 25% each time.
With `O=C(ON1C(=O)CCC1=O)N1CCC(N2CCCC2)CC1` [Example 217, 2,5-Dioxopyrrolidin-1-yl 4-(pyrrolidin-1-yl)piperidine-1-carboxylate], the inhibition at 10 µM on MAGL [4], at ABHD6 [5] and at FAAH [6] was under 25% throughout.
As for `O=C(ON1C(=O)CCC1=O)N1CCC(N2CCCCC2)CC1` [Example 218, 2,5-Dioxopyrrolidin-1-yl 4-(piperidine-1-yl)piperidine-1-carboxylate], the inhibition at 10 µM on MAGL [4], on ABHD6 [5] and at FAAH [6] was under 25% throughout.
Regarding `O=C(ON1C(=O)CCC1=O)N1CCC(N2CCCC2=O)CC1` [Example 219, 2,5-Dioxopyrrolidin-1-yl 4-(2-oxopyrrolidin-1-yl)piperidine-1-carboxylate], the inhibition at 10 µM at MAGL [4] is under 25%; on ABHD6 [5] it was 25 to 75%; at FAAH [6], under 25%.
For `O=C(ON1C(=O)CCC1=O)N1CCC(N2CCCCC2=O)CC1` [Example 220, 2,5-Dioxopyrrolidin-1-yl 4-(2-oxopiperidin-1-yl)piperidine-1-carboxylate], the inhibition at 10 µM at MAGL [4] is under 25%; at ABHD6 [5], 25 to 75%; on FAAH [6] it was under 25%.
